Measured values published in US11529341B2, “Bicyclic compounds as inhibitors of PD1/PD-L1 interaction/activation” (JUBILANT PRODEL LLC, priority 2018, dated 2022).
pIC50: −log10 of the molar value.

Target: T1, PD-1/PD-L1 interaction (Homo sapiens, UniProt Q9NZQ7)
T1 construct: Tag1 (undisclosed kit tag); purchased CisBio 63ADK000CPAPEG
Assay: PD-1/PD-L1 Homogenous Time-Resolved Fluorescence (HTRF) binding assay (CisBio kit)
Settings: Biochemical PD1/PD-L1 inhibition
Experimental: PD-L1 Enzyme Assay: Homogenous Time-Resolved Fluorescence (HTRF) Binding Assay
All binding studies were performed using PD-1/PD-L1 Binding Assay Kit from CisBio (Catalog #63ADK000CPAPEG), according to the manufacturer's protocol. The interaction between Tag1-PD-1 and […] was detected by anti-Tag1-Eu^3+ (HTRF donor) and anti-Tag2-XL665 (HTRF acceptor). When the donor and acceptor antibodies were brought to close proximity due to PD-1 and PD-L1 binding, excitation of the donor antibody triggered fluorescent resonance energy transfer (FRET) towards the acceptor antibody, which in turn emitted specifically at 665 nm. This specific signal is positively proportional to PD-1/PD-L1 interaction. The compounds blocking PD-1/PD-L1 interaction will cause a reduction in HTRF signal. The necessary reagents were mixed in the following order: 2 μl compounds (or diluents buffer), 4 μl PD-L1 protein, 4 μl PD-1 protein. After an incubation of 15 minutes, 5 μl of anti-Tag1-Eu^3+ and 5 μl of anti-Tag2-XL665 were added. The plate was sealed and incubated at room temperature for 1 h. The fluorescence emission was read at two different wavelengths (665 nm and 620 nm) on a BMG PheraStar® multi-plate reader. Results were calculated from the 665 nm and 620 nm fluorescence signal and expressed in HTRF ratio=(665 nm/620 nm)×10^4.

T1 sequence (Q9NZQ7 19-238 limits assumed): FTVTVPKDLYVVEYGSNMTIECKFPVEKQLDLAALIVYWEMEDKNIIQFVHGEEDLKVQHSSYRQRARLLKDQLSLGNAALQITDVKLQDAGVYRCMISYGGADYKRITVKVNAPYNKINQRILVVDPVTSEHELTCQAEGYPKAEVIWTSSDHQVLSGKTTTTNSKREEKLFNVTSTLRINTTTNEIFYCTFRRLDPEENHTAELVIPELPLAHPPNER

| Compound | pIC50 |
| --- | --- |
| Cc1c(COc2cc(OCc3cccc(C#N)c3)c(CN3CCC[C@@H]4C[C@@]43C(=O)O)c3c2CCC3)cccc1-c1ccccc1 (racemic) [Compound 43, rac-(1R,6S)-2-((5-((3-cyanobenzyl)oxy)-7-((2-methyl-[1,1′-biphenyl]-3-yl)methoxy)-2,3-dihydro-1H-inden-4-yl)methyl)-2-azabicyclo[4.1.0]heptane-1-carboxylic acid] | > 7.00 |
| COc1cc(OCc2cccc(-c3ccccc3)c2C)c2c(c1CN1CCC[C@H]3C[C@]31C(=O)O)CCC2 (racemic) [Compound 45, (1R,6S)-2-((5-methoxy-7-((2-methyl-[1,1′-biphenyl]-3-yl)methoxy)-2,3-dihydro-1H-inden-4-yl)methyl)-2-azabicyclo[4.1.0]heptane-1-carboxylic acid] | 6.30 to 7.00 |
| Cc1c(COc2cc(OCc3cncc(C#N)c3)c(CN3CCC[C@@H]4C[C@@]43C(=O)O)c3c2CCC3)cccc1-c1ccccc1 (racemic) [Compound 51, rac-(1R,6S)-2-((5-((5-cyanopyridin-3-yl)methoxy)-7-((2-methyl-[1,1′-biphenyl]-3-yl)methoxy)-2,3-dihydro-1H-inden-4-yl)methyl)-2-azabicyclo[4.1.0]heptane-1-carboxylic acid] | > 7.00 |
| COc1cc(OCc2cccc(-c3ccccc3)c2C#N)c2c(c1CN1CCC[C@@H]3C[C@@]31C(=O)O)CCC2 (racemic) [Compound 62, rac-(1R,6S)-2-((7-((2-cyano-[1,1′-biphenyl]-3-yl)methoxy)-5-methoxy-2,3-dihydro-1H-inden-4-yl)methyl)-2-azabicyclo[4.1.0]heptane-1-carboxylic acid] | > 7.00 |
| N#Cc1cncc(COc2cc(OCc3cccc(-c4ccccc4)c3C#N)c3c(c2CN2CCC[C@@H]4C[C@@]42C(=O)O)CCC3)c1 (racemic) [Compound 72, rac-(1R,6S)-2-((7-((2-cyano-[1,1′-biphenyl]-3-yl)methoxy)-5-((5-cyanopyridin-3-yl)methoxy)-2,3-dihydro-1H-inden-4-yl)methyl)-2-azabicyclo[4.1.0]heptane-1-carboxylic acid] | > 7.00 |
| Cc1c(COc2ccc(CN3CCCC[C@H]3C(=O)O)c3c2CCC3)cccc1-c1ccccc1 [Compound 1, (S)-1-((7-((2-methyl-[1,1′-biphenyl]-3-yl)methoxy)-2,3-dihydro-1H-inden-4-yl)methyl) piperidine-2-carboxylic acid] | 6.30 to 7.00 |
| COc1cc(OCc2cccc(-c3ccccc3)c2C)c2c(c1CNCCNC(C)=O)CCC2 [Compound 2, N-(2-(((5-methoxy-7-((2-methyl-[1,1′-biphenyl]-3-yl)methoxy)-2,3-dihydro-1H-inden-4-yl)methyl)amino)ethyl)acetamide] | 6.30 to 7.00 |
| Cc1c(COc2ccc(CN3CCCC[C@H]3C(=O)O)c3c2CCC3)cccc1-c1cccc2c1ccn2CCCN1CCC(F)(F)C1 [Compound 3, (S)-1-((7-((3-(1-(3-(3,3-difluoropyrrolidin-1-yl)propyl)-1H-indol-4-yl)-2-methylbenzyl)oxy)-2,3-dihydro-1H-inden-4-yl)methyl)piperidine-2-carboxylic acid] | < 6.30 |
| Cc1cc(CN2CCCC[C@H]2C(=O)O)c2c(c1OCc1cccc(-c3ccccc3)c1C)CCC2 [Compound 4, (S)-1-((6-methyl-7-((2-methyl-[1,1′-biphenyl]-3-yl)methoxy)-2,3-dihydro-1H-inden-4-yl)methyl)piperidine-2-carboxylic acid] | 6.30 to 7.00 |
| Cc1c(COc2c(Cl)cc(CN3CCCC[C@H]3C(=O)O)c3c2CCC3)cccc1-c1ccccc1 [Compound 5, (S)-1-((6-chloro-7-((2-methyl-[1,1′-biphenyl]-3-yl)methoxy)-2,3-dihydro-1H-inden-4-yl)methyl)piperidine-2-carboxylic acid] | 6.30 to 7.00 |
| COC(=O)c1cc(CNCCNC(C)=O)c2c(c1OCc1cccc(-c3ccccc3)c1C)CCC2 [Compound 6, Methyl 7-(((2-acetamidoethyl)amino)methyl)-4-((2-methyl-[1,1′-biphenyl]-3-yl)methoxy)-2,3-dihydro-1H-indene-5-carboxylate] | < 6.30 |
| COc1cc(OCc2cccc(-c3cccc(OCCCN4CCC(F)(F)C4)c3C)c2C)c2c(c1CN1CCCC[C@H]1C(=O)O)CCC2 [Compound 7, (S)-1-((7-((3′-(3-(3,3-difluoropyrrolidin-1-yl)propoxy)-2,2′-dimethyl-[1,1′-biphenyl]-3-yl)methoxy)-5-methoxy-2,3-dihydro-1H-inden-4-yl)methyl)piperidine-2-carboxylic acid] | < 6.30 |
| Cc1c(COc2cc(OCc3cccc(C#N)c3)c(CN3CCCC[C@H]3C(=O)O)c3c2CCC3)cccc1-c1ccccc1 [Compound 8, (S)-1-((5-((3-cyanobenzyl)oxy)-7-((2-methyl-[1,1′-biphenyl]-3-yl)methoxy)-2,3-dihydro-1H-inden-4-yl)methyl)piperidine-2-carboxylic acid] | > 7.00 |
| Cc1c(COc2cc(OCc3cncc(F)c3)c(CN3CCCC[C@H]3C(=O)O)c3c2CCC3)cccc1-c1ccccc1 [Compound 9, (S)-1-((5-((5-fluoropyridin-3-yl)methoxy)-7-((2-methyl-[1,1′-biphenyl]-3-yl)methoxy)-2,3-dihydro-1H-inden-4-yl)methyl)piperidine-2-carboxylic acid] | > 7.00 |
| CC(=O)NCCNCc1c(OCc2cncc(F)c2)cc(OCc2cccc(-c3ccccc3)c2C)c2c1CCC2 [Compound 10, N-(2-(((5-((5-fluoropyridin-3-yl)methoxy)-7-((2-methyl-[1,1′-biphenyl]-3-yl)methoxy)-2,3-dihydro-1H-inden-4-yl)methyl)amino)ethyl)acetamide] | > 7.00 |
| COc1cc(OCc2cccc(-c3ccccc3)c2C)c2c(c1CN1CC3(CC3)C[C@H]1C(=O)O)CCC2 [Compound 11, (S)-5-((5-methoxy-7-((2-methyl-[1,1′-biphenyl]-3-yl)methoxy)-2,3-dihydro-1H-inden-4-yl)methyl)-5-azaspiro[2.4]heptane-6-carboxylic acid] | > 7.00 |
| Cc1c(COc2cc(OCC(F)(F)F)c(CN3CCCC[C@H]3C(=O)O)c3c2CCC3)cccc1-c1ccccc1 [Compound 12, (S)-1-((7-((2-methyl-[1,1′-biphenyl]-3-yl)methoxy)-5-(2,2,2-trifluoroethoxy)-2,3-dihydro-1H-inden-4-yl)methyl)piperidine-2-carboxylic acid] | > 7.00 |
| CC(=O)N(C)CCNCc1c(OCc2cccc(C#N)c2)cc(OCc2cccc(-c3ccccc3)c2C)c2c1CCC2 [Compound 13, N-(2-(((5-((3-cyanobenzyl)oxy)-7-((2-methyl-[1,1′-biphenyl]-3-yl)methoxy)-2,3-dihydro-1H-inden-4-yl)methyl)amino)ethyl)-N-methylacetamide] | > 7.00 |
| CC(=O)NCCNCc1c(OC(C)c2cccc(C#N)c2)cc(OCc2cccc(-c3ccccc3)c2C)c2c1CCC2 (centres unmarked) [Compound 14, N-(2-(((5-(1-(3-cyanophenyl)ethoxy)-7-((2-methyl-[1,1′-biphenyl]-3-yl)methoxy)-2,3-dihydro-1H-inden-4-yl)methyl)amino)ethyl)acetamide] | < 6.30 |
| CC(=O)NC1CCCN(Cc2c(OCc3cccc(C#N)c3)cc(OCc3cccc(-c4ccccc4)c3C)c3c2CCC3)C1 (centres unmarked) [Compound 15, N-(1-((5-((3-cyanobenzyl)oxy)-7-((2-methyl-[1,1′-biphenyl]-3-yl)methoxy)-2,3-dihydro-1H-inden-4-yl)methyl)piperidin-3-yl)acetamide] | > 7.00 |
| CC(=O)NCCNCc1ccc(OCc2cccc(-c3ccccc3)c2C)c2c1CCC2 [Compound 16, N-(2-(((7-((2-methyl-[1,1′-biphenyl]-3-yl)methoxy)-2,3-dihydro-1H-inden-4-yl)methyl)amino)ethyl)acetamide] | < 6.30 |
| Cc1c(COc2ccc(CN3CC4(COC4)C3)c3c2CCC3)cccc1-c1ccccc1 [Compound 17, 6-((7-((2-methyl-[1,1′-biphenyl]-3-yl)methoxy)-2,3-dihydro-1H-inden-4-yl)methyl)-2-oxa-6-azaspiro[3.3]heptane] | < 6.30 |
| Cc1c(COc2ccc(CNC(CO)(CO)CO)c3c2CCC3)cccc1-c1ccccc1 [Compound 18, 2-(hydroxymethyl)-2-(((7-((2-methyl-[1,1′-biphenyl]-3-yl)methoxy)-2,3-dihydro-1H-inden-4-yl)methyl)amino)propane-1,3-diol] | 6.30 to 7.00 |
| Cc1c(COc2ccc(CNC3(C(=O)O)CC3)c3c2CCC3)cccc1-c1ccccc1 [Compound 19, 1-(((7-((2-methyl-[1,1′-biphenyl]-3-yl)methoxy)-2,3-dihydro-1H-inden-4-yl)methyl)amino)cyclopropane-1-carboxylic acid] | 6.30 to 7.00 |
| Cc1c(COc2ccc(CNCC(=O)O)c3c2CCC3)cccc1-c1ccccc1 [Compound 20, ((7-((2-methyl-[1,1′-biphenyl]-3-yl)methoxy)-2,3-dihydro-1H-inden-4-yl)methyl)glycine] | 6.30 to 7.00 |
| Cc1c(COc2ccc(CNCCC(=O)O)c3c2CCC3)cccc1-c1ccccc1 [Compound 21, 3-(((7-((2-methyl-[1,1′-biphenyl]-3-yl)methoxy)-2,3-dihydro-1H-inden-4-yl)methyl)amino)propanoic acid] | < 6.30 |
